Results from patent US20200392150A1, “Diaryl-B-Lactam Compound and Preparation Method and Pharmaceutical Use Thereof” (Fudan University, priority 2016, published 2020).
“Also recorded” adds a separate entry of the source. Like-named read-outs stand apart in the source and are kept apart here.

Key:
cells = experiment: Cell apoptosis analysis (Annexin V/PI flow cytometry); type: cell-based; conditions: 48 h
Description: Cell apoptosis was detected using FITC Annexin V Apoptosis Detection Kit (BD Biosciences) according to manufacturer's instructions. Briefly, cells were incubated with indicated concentrations of 69, 70 and 97, CA-4 as positive control or diluent (0.2% DMSO) as negative control for 48 h. Then the cells were harvested, washed twice with PBS, and re-suspended in binding buffer. After being stained with Annexin-V and PI for 15 min in the dark place, cells were subjected to flow cytometry (Cytomics FC 500 MPL, Beckman Coulter) analysis. The results were indicated as mean values from three independent determinations.

A2780 cells xenograft = experiment: Xenografts tumor growth assay in nude mice; type: in vivo, Balb/c nude mice; conditions: i.p. once every 2 days, 69 7.5 mg/kg, 70 12.5 mg/kg, 97 4 or 8 mg/kg
Description: 6 weeks old female Balb/c nude mice were purchased from Shanghai Slac Laboratory Animal Co. Ltd. (Shanghai, China). 2*10^6 A2780 cells suspended in 0.2 mL PBS per mouse was injected subcutaneously into the nude mice. […] Administration of agents or vehicle, or agents and measurement of tumor volumes with a digital caliper was done once every 2 days. Tumor volumes were calculated as volume=shortest diameter (W)^2*longest diameter (L)*0.52. When the average tumor volumes of vehicle treated group reached 2000 mm^3 in diameter, the mice were sacrificed and the tumors were isolated and weighed. Visceral organs of the mice as well as solid tumors were further analyzed by H&E staining.

Pig brain tubulin = biological target: T1, Pig brain tubulin (Sus scrofa, UniProt P02550+P02554); experiment: In vitro tubulin polymerization assay; type: biochemical
T1 construct: purchased; host or cells: pig brain
T1 sequence (P02554 whole entry): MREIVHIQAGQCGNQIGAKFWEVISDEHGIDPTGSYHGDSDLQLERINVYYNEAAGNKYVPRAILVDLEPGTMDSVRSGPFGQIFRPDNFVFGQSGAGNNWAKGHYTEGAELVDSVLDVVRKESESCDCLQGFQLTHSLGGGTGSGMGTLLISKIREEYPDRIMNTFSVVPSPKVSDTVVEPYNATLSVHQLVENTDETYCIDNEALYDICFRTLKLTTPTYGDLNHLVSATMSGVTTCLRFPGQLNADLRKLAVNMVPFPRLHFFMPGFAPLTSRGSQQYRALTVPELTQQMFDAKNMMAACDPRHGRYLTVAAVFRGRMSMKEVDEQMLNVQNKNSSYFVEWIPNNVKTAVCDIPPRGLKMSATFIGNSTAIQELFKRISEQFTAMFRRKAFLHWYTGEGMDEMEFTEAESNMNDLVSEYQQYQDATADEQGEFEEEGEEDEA
T1 sequence (P02550 whole entry): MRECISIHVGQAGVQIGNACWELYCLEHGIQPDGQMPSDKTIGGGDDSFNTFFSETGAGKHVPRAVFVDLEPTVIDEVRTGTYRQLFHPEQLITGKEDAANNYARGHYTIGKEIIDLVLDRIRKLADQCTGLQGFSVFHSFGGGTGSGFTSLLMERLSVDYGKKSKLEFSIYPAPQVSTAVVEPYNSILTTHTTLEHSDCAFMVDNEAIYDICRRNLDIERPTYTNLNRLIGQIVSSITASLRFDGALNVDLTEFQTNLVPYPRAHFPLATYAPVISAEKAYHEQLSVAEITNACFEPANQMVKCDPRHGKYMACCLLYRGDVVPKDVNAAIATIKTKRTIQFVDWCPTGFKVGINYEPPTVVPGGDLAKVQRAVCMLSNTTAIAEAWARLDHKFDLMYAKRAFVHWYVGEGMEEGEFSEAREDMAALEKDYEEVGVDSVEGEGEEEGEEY
Description: In vitro tubulin polymerization assay Pig brain tubulin was obtained commercially and stored in aliquots at −70° C. […] The absorbance of wavelength at 340 nm was detected every 1 min for 20 min by Spectra Max 190 spectrophotometer (Molecular Device) at 37° C. The results were indicated as mean values from three independent determinations.

tubulin in SKOV-3 cells = experiment: Immunofluorescent analysis of tubulin morphology; type: cell-based, human; conditions: 24 h
Description: After treatment with diluent (0.2% DMSO) or tested compounds at indicated concentrations for 24 h, SKOV-3 cells were fixed with methanol, permeabilized with 0.1% Triton X-100 in PBS and blocked by goat serum. Then the cells were incubated with a-tubulin antibody at 4° C. overnight, followed by incubation with Alexa 488 labeled secondary antibody (Jackson ImmunoResearch) at RT for 1 h. After being stained with DAPI, cells were examined and photographed with a Leica SP5 co-focal fluorescence microscope.

tubulin in Hela cells = experiment: Immunoblotting analysis of polymerized/depolymerized tubulin; type: cell-based, human; conditions: 6 h
Description: After being treated with diluent (0.2% DMSO), tested compound, CA-4 or PTX for 6 h, Hela cells were lysed with microtubulestabilizing buffer, containing 100 mM PIPES, pH 6.8, 1 mM MgCl2, 2 mM EGTA, 0.5% NP-40, 2 M glycerol, 5 μM PTX and protease inhibitors cocktail (Roche), and the lysate was centrifuged at 15,000 rpm for 15 min. Supernatant containing depolymerized tubulin was carefully collected, whereas pellet (polymerized tubulin) was further dissolved in SDS-lysis buffer (Beyotime, China). Equal amounts of supernatant and dissolved pellet were subjected to immunoblotting analysis as described above using atubulin antibody (Proteintech).

MDA-MB-231 cells = experiment: Colony formation assay; type: cell-based, human; conditions: 48 h treatment, 7-10 days growth
Description: 1000 MDA-MB-231 cells per well were seeded into 6-well plate at a single cell density and were cultured at 37° C. for 48 h. After being treated with indicated concentrations of 69, 70 and 97, CA-4 as positive control, or diluent (0.2% DMSO) as negative control for 48 h, the agents containing medium was replaced by fresh medium to allow cell growth for additional 7-10 days. Then the cells were fixed with methanol and stained with gentian violet for 30 min.
The number of colonies which consisted of more than 50 cells were counted. The results were indicated as mean values from three independent determinations.

[1] = tested on: Bax, p53 and cleaved-PARP in HeLa cells; experiment: Expression level of apoptosis associated proteins; type: cell-based, human; conditions: western blotting and qPCR
Description: A. Western blotting: After being treated with candidate compound, cells were harvested and lysed. Then, the lysate was isolated by ultracentrifuge and quantified by BCA assay according to the protocol. After being denatured, equivalent protein of each sample was separated by SDSPAGE gel and wet-transferred onto 0.22 μm nitrocellulose membrane. After being blocked by PBS containing 5% skim milk, the membrane was incubated with primary antibody at 4° C. overnight and secondary antibody at room temperature for 2 h and then visualized by enhanced chemiluminescence kit (Thermo Fisher, USA), sequentially.
B. Quantitative PCR assay: HeLa cells were treated with 69, 70 or 97. The expression level of mRNA of target proteins was tested with qPCR kit (Takara).

[2] = tested on: human umbilical veinendothelial cells (HUVECs); experiment: Capillary-like tube formation assay; type: cell-based; conditions: HUVECs on matrigel, 12 h
Description: […] matrigel (Corning) per well was added to 96-well plate and pre-incubated at 37° C. for 1 h for gelation. 3*10^4 human umbilical veinendothelial cells (HUVECs) in […] medium per well containing indicated concentrations of 69, 70 and 97, CA-4 as positive control, or diluent (0.2% DMSO) as negative control, respectively, were seeded to 96-well plates on the matrigel layer, followed by continual incubation at 37° C. for 12 h to allow capillary-like tube formation. Images were captured with a CCD Sensicam camera mounted on an Olympus inverted microscope. Representative data from three independent experiments were shown.

| Structure (SMILES) | cellular apoptosis (cells) | H&E staining of liver, kidney and spleen (A2780 cells xenograft) | H&E staining of tumor sections (A2780 cells xenograft) | mouse body weight (A2780 cells xenograft) | tumor growth in vivo (A2780 cells xenograft) | IC50 (Pig brain tubulin) [nM] | tubulin assembly (immunofluorescence) (tubulin in SKOV-3 cells) | polymerized tubulin (immunoblotting) (tubulin in Hela cells) | colony formation (MDA-MB-231 cells) | expression of Bax, p53 and cleaved-PARP [1] | capillary-like tube formation [2] | IC50 (Pig brain tubulin; pig brain tubulin, absorbance 340 nm, 20 min, 37° C., read-out: IC50 disruption of tubulin assembly) [nM] |
| --- | --- | --- | --- | --- | --- | --- | --- | --- | --- | --- | --- | --- |
| COc1ccc([C@H]2[C@@H](C)C(=O)N2c2cc(OC)c(OC)c(OC)c2)cc1O [Compound 70, (3R,4R)-4-(3-hydroxy-4-methoxyphenyl)-3-methyl-1-(3,4,5-trimethoxyphenyl)azetidin-2-one] | significantly promote apoptosis; also recorded: significantly induce cellular apoptosis | no abnormal areas are observed in tissue staining of liver, kidney and spleen; also recorded: no detectable abnormalities were observed in liver, kidney and spleen | cause tumor tissue to produce necrotic areas; also recorded: extensive areas of necrosis or cell death | no significant influence on mouse body weight; also recorded: no significant weight loss observed | significantly inhibit tumor growth in vivo; also recorded: anti-tumor activities in vivo | 1700 | significantly inhibit tubulin aggregation; also recorded: strongly inhibit tubulin assembly | significantly inhibit tubulin aggregation; also recorded: dramatically reduction of polymerized tubulin | significantly inhibit the formation of colonies; also recorded: dose-dependently reduced | significantly promote the expression of the proapoptotic protein Bax, the tumor suppressor gene p53, and the cleaved DNA repair enzyme; also recorded: significantly induce the expression of Bax, p53 and cleaved-PARP | significantly inhibit the formation of capillary-like structures; also recorded: almost completely disrupted the capillary-like tube formation |  |
| COc1ccc([C@H]2[C@H](C)C(=O)N2c2cc(OC)c(OC)c(OC)c2)cc1O [Compound 97, (3S,4R)-4-(3-hydroxy-4-methoxyphenyl)-3-methyl-1-(3,4,5-trimethoxyphenyl)azetidin-2-one] | significantly promote apoptosis; also recorded: significantly induce cellular apoptosis | no abnormal areas are observed in tissue staining of liver, kidney and spleen; also recorded: no detectable abnormalities were observed in liver, kidney and spleen | cause tumor tissue to produce necrotic areas; also recorded: extensive areas of necrosis or cell death | no significant influence on mouse body weight; also recorded: no significant weight loss observed | significantly inhibit tumor growth in vivo; also recorded: anti-tumor activities in vivo |  | significantly inhibit tubulin aggregation; also recorded: strongly inhibit tubulin assembly | significantly inhibit tubulin aggregation; also recorded: dramatically reduction of polymerized tubulin | significantly inhibit the formation of colonies; also recorded: dose-dependently reduced | significantly promote the expression of the proapoptotic protein Bax, the tumor suppressor gene p53, and the cleaved DNA repair enzyme; also recorded: significantly induce the expression of Bax, p53 and cleaved-PARP | significantly inhibit the formation of capillary-like structures; also recorded: almost completely disrupted the capillary-like tube formation | 1600 |
| COc1ccc([C@H]2[C@H](CO)C(=O)N2c2cc(OC)c(OC)c(OC)c2)cc1O [Compound 69, (3R,4R)-4-(3-hydroxy-4-methoxyphenyl)-3-(hydroxymethyl)-1-(3,4,5-trimethoxyphenyl)azetidin-2-one] | significantly promote apoptosis; also recorded: significantly induce cellular apoptosis | no abnormal areas are observed in tissue staining of liver, kidney and spleen; also recorded: no detectable abnormalities were observed in liver, kidney and spleen | cause tumor tissue to produce necrotic areas; also recorded: extensive areas of necrosis or cell death | no significant influence on mouse body weight; also recorded: no significant weight loss observed | significantly inhibit tumor growth in vivo; also recorded: anti-tumor activities in vivo | 3500 | significantly inhibit tubulin aggregation; also recorded: strongly inhibit tubulin assembly | significantly inhibit tubulin aggregation; also recorded: dramatically reduction of polymerized tubulin | significantly inhibit the formation of colonies; also recorded: dose-dependently reduced | significantly promote the expression of the proapoptotic protein Bax, the tumor suppressor gene p53, and the cleaved DNA repair enzyme; also recorded: significantly induce the expression of Bax, p53 and cleaved-PARP | significantly inhibit the formation of capillary-like structures; also recorded: almost completely disrupted the capillary-like tube formation |  |
